In patent US12458628B2, “Cancer therapeutic” (J-Pharma Co., Ltd., priority 2017, dated 2025):
Where “and” joins values, the source holds several entries; their conditions need not be identical. Equal values may be shown once.

Tested on: patients with solid cancer
Experiment: Phase 1 clinical trial of JPH203 in patients with solid cancer (safety/DLT and efficacy)
Assay type: in vivo, human
Settings: for Effective case: single dose then once daily for 7 consecutive days per cycle; for DLT (dose limiting toxicity): between single administration and test at end of cycle 1
Procedure: The injection is a lyophilized formulation and contains 50 mg of JPH203 and 1200 mg of sulfobutyl ether-β-cyclodextrin in one vial.
Phase 1 Clinical Trial of JPH203 in Patients with Solid Cancer
This clinical trial involved patients with solid cancer. The object of this clinical trial was to evaluate the safety (dose limiting toxicity: DLT) and efficacy of JPH203.
The patient's primary inclusion criteria and exclusion criteria are as follows:
• Patients in advanced stage, who have been confirmed to have solid cancer and who are refractory or intolerant to standard therapy • Patients whose biopsies or pre-existing tissues are available for LAT1 antibody staining • Patients who can be expected to survive 90 days or more from the date of enrollment Exclusion Criteria • Patients with serious or clinically problematic anamnesis or complications • Patients who received chemotherapy, radiation therapy, immunotherapy, or other therapies aimed at tumor shrinkage effect within 4 weeks prior to study drug administration
The dosing schedule is as follows:
On Day 1, a predetermined dosage was administered in a single dose. The dosage was 12 mg/m^2 (4 cases), 25 mg/m^2 (3 cases), 40 mg/m^2 (3 cases), 60 mg/m^2 (6 cases), or 85 mg/m^2 (1 case). One case of the 12 mg/m^2 dosage group was discontinued after only a single dose due to disease progression.
Cycle 1 was started 8 days or more after the single administration, and the injection was administered once daily for 7 consecutive days. Tests including CT were performed on days 28 to 31 from the start date of cycle 1 administration.
Within 28 days of the test day of the previous cycle, the next cycle was started and the injection was administered once daily for 7 consecutive days. Tests were performed on days 28 to 31 from the start date of administration.
DLT was the following symptoms occurring between the single administration and the test at the end of cycle 1 (from the start of cycle 1 to day 28) and for which the investigator (subinvestigator) determined that the relationship with the study drug could not be denied (“related,” “probably related,” “possibly related,” or “unlikely related”). However, the final determination of DLT was made in consultation between the investigator and the sponsor. If necessary, advice from the Data and Safety Monitoring Board was sought upon determining DLT. • 1) Non-hematologic toxicity of grade 3 or more for which the investigator (subinvestigator) determines that it is difficult to continue the administration of the study drug (except for acneform rash, maculo-papular rash, or urticaria of grade 3, and nausea, vomiting, inappetence, diarrhea, constipation, or fatigue that recovers to grade 1 by symptomatic therapy within 7 days after the occurrence) • 2) Hematotoxicity of grade 4 or more or thrombocytopenia of grade 3 or more requiring blood transfusion • 3) Febrile neutropenia
It should be noted that PD (progression) is when the sum of diameters of the target lesion is increased by 20% or more and the absolute value of sum diameters is increased by 5 mm or more compared to the smallest sum diameters measured at or after the baseline.

Structure (SMILES): Nc1cc(COc2c(Cl)cc(C[C@H](N)C(=O)O)cc2Cl)c2oc(-c3ccccc3)nc2c1 [JPH203, O-(5-amino-2-phenylbenzoxazol-7-yl)methyl-3,5-dichloro-L-tyrosine]
- cases of no change in tumor size (stable: SD) (12 mg/m^2 dosage group): 1 case
- cases of tumor size reduction of 30% or more (partial response: PR) (12 mg/m^2 dosage group): One
- cases of no change in tumor size (stable: SD) (25 mg/m^2 dosage group): 1 case
- cases of no change in tumor size (stable: SD) (40 mg/m^2 dosage group): 1 case
- AST/ALT increase of grade 3 (DLT) (60 mg/m^2 dosage group): observed
- cases of no change in tumor size (stable: SD) (60 mg/m^2 dosage group): 1 case
- AST/ALT increase of grade 3 (DLT) (85 mg/m^2 dosage group): observed
- Effective case (dosage 12 mg/m^2, injection): 2/3
- DLT (dose limiting toxicity) (dosage 12 mg/m^2): No
- Effective case (dosage 25 mg/m^2, injection): 1/3
- DLT (dose limiting toxicity) (dosage 25 mg/m^2): No
- Effective case (dosage 40 mg/m^2, injection): 1/3
- DLT (dose limiting toxicity) (dosage 40 mg/m^2): No
- Effective case (dosage 60 mg/m^2, injection): 1/6
- DLT (dose limiting toxicity) (dosage 60 mg/m^2): Yes
- Effective case (dosage 85 mg/m^2, injection): 0/1
- DLT (dose limiting toxicity) (dosage 85 mg/m^2): Yes
- cases with significant shrinkage effect in lymph node metastatic lesions (lymph node metastatic lesions, all dosage groups): 3 out of 7
- survival prolonging effects by cancer type (Swimmer plot, FIG. 2) (months of survival for each subject): exhibits survival prolonging effects on bile duct cancer, colorectal cancer, and pancreatic cancer
- shrinkage of lymph node metastatic lesions (individual cases) (the 3 responding cases out of 7): 55% and 69.4% and 80%
- tumor shrinkage effects by cancer type (Waterfall plot, FIG. 1) (tumor shrinkage ratio for each subject): exhibits tumor shrinkage effects on bile duct cancer, colorectal cancer, esophageal cancer, and breast cancer
